Assay results: ChEMBL document CHEMBL1201862, “PubChem BioAssay data set” (2004)
Blank lines part the entries; values can stand above or below the compound they belong to. Calls of active or inactive are those of the source.

Columns and labels:
Assay type in all cases: functional
[1] = target: Neuropeptides B/W receptor type 1 (Homo sapiens, UniProt P48145); assay: human NPBW1 receptor blockade, IC50 – cell-based, fluorescence, dose response, set 5, late-stage follow-up (AID 588566)
[2] = target: Melanin-concentrating hormone receptor 1 (Homo sapiens, UniProt Q99705); assay: Late-stage fluorescence-based counterscreen for antagonists of the G-protein coupled receptor 7 (GPR7): cell-based dose response assay to identify antagonists of the melanin-concentrating hormone receptor 1 (MCHR1) Set 5.
[3] = target: Multidrug resistance protein CDR2 (Candida albicans (strain SC5314 / ATCC MYA-2876) (Yeast), UniProt P78595); assay: inhibition of Nile Red efflux via Candida CDR2 – S. cerevisiae AD1-8u, singleplex, Cherry Pick1 hits, dose response (AID 588604)
[4] = target: Dual specificity protein kinase CLK2 (Homo sapiens, UniProt P49760)
[5] = target: Tyrosine-protein kinase SYK (Homo sapiens, UniProt P43405)
[6] = target: Serine/threonine-protein kinase D3 (Homo sapiens, UniProt O94806);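 note: determined within a kinase panel screen, with PRKCN as the panel member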
[7] = target: Serine/threonine-protein kinase 17A (Homo sapiens, UniProt Q9UEE5)
[8] = target: Death-associated protein kinase 3 (Homo sapiens, UniProt O43293);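 note: measured as one member of a kinome-wide profiling panel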
Death-associated protein kinase 3, sequence (O43293 whole entry): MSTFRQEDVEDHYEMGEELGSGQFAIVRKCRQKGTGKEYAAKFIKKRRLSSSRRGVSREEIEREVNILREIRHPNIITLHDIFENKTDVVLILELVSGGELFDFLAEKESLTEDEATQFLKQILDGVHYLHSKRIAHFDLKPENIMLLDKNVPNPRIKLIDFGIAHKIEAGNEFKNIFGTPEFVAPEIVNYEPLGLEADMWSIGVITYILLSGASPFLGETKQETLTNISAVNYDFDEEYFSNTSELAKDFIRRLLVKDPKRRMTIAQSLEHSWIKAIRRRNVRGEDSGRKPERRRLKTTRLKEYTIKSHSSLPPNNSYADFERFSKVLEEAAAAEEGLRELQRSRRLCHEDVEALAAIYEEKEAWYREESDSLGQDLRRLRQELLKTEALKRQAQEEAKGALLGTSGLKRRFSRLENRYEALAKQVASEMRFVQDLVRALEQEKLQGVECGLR

[9] = target: Serine/threonine-protein kinase pim-1 (Homo sapiens, UniProt P11309)
Serine/threonine-protein kinase pim-1, sequence (P11309 whole entry): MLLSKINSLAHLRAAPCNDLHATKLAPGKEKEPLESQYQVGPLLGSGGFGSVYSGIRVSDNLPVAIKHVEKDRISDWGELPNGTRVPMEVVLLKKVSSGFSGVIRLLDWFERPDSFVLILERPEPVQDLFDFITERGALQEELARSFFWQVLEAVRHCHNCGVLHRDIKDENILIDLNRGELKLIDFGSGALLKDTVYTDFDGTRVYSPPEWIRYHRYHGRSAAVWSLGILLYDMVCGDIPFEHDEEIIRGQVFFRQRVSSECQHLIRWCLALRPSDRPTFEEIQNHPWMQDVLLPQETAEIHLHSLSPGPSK

[10] = target: Serine/threonine-protein kinase PAK 4 (Homo sapiens, UniProt O96013);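 note: value obtained within a kinome profiling panel in which PAK4 was one of the panel members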
Serine/threonine-protein kinase PAK 4, sequence (O96013 whole entry): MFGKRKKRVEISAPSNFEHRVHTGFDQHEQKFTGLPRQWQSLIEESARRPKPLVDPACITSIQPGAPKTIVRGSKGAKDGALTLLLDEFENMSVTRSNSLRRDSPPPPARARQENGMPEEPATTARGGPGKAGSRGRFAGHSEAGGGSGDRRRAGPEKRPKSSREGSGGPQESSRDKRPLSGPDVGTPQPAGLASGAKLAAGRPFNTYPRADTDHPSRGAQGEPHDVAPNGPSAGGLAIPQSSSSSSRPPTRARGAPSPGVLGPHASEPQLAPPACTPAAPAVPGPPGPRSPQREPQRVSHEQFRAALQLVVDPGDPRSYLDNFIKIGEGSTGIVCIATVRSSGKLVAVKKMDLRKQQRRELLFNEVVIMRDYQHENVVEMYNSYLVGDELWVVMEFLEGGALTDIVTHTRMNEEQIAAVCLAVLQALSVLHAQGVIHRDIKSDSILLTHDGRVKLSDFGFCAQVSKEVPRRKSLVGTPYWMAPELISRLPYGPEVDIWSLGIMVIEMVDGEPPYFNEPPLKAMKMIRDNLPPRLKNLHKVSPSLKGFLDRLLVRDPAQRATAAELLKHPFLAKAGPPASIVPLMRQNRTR

[11] = target: Calcium/calmodulin-dependent protein kinase type II subunit delta (Homo sapiens, UniProt Q13557)
[12] = target: Casein kinase I isoform alpha (Homo sapiens, UniProt P48729)
[13] = target: Tyrosine-protein kinase JAK3 (Homo sapiens, UniProt P52333)
Tyrosine-protein kinase JAK3, sequence (P52333 whole entry): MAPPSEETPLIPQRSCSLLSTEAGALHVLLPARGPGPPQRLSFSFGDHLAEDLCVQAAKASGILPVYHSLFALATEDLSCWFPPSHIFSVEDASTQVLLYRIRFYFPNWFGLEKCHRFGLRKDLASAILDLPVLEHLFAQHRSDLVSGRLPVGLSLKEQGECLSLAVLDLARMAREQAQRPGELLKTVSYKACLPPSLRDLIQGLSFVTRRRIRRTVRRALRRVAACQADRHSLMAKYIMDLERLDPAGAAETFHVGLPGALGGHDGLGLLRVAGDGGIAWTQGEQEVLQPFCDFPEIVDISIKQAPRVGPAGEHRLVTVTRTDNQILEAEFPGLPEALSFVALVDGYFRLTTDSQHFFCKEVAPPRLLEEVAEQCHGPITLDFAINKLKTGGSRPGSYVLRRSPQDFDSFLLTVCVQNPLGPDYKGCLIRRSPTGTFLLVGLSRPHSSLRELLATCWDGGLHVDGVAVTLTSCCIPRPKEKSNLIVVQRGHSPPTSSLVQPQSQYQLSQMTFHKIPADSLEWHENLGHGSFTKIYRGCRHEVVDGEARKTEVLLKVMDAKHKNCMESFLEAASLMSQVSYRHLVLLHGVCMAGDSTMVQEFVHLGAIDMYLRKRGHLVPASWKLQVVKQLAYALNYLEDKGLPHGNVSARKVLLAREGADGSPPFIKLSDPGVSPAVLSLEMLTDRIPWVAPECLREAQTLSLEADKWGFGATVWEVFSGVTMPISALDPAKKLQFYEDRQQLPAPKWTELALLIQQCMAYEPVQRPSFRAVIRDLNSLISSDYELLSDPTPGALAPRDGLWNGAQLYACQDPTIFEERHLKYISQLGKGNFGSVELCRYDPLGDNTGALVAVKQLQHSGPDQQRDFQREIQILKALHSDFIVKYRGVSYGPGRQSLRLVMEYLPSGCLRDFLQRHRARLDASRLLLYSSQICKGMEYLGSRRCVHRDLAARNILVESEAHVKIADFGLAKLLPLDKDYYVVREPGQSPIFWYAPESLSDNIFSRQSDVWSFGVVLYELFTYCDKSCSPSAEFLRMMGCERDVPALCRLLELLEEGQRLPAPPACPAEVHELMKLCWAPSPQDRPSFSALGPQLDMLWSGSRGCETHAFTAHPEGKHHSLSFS

[14] = target: Serine/threonine-protein kinase N2 (Homo sapiens, UniProt Q16513)
[15] = target: Homeodomain-interacting protein kinase 2 (Homo sapiens, UniProt Q9H2X6);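 note: measured within a kinome-wide kinase profiling panel, HIPK2 being one panel member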
[16] = target: Receptor-type tyrosine-protein kinase FLT3 (Homo sapiens, UniProt P36888);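 note: FLT3 was tested as one member of a kinome-wide kinase panel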
[17] = target: Misshapen-like kinase 1 (Homo sapiens, UniProt Q8N4C8);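 note: kinome panel screen with MINK as the panel member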
[18] = target: cAMP-dependent protein kinase catalytic subunit PRKX (Homo sapiens, UniProt P51817)
[19] = target: Maternal embryonic leucine zipper kinase (Homo sapiens, UniProt Q14680)
[20] = target: Mitogen-activated protein kinase kinase kinase kinase 5 (Homo sapiens, UniProt Q9Y4K4);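 note: measured as one member of a kinome-spanning kinase panel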
[21] = target: Cyclin-dependent kinase 8 (Homo sapiens, UniProt P49336); assay: Navigating the Kinome. Panel member name: CDK8
Cyclin-dependent kinase 8, sequence (P49336 whole entry): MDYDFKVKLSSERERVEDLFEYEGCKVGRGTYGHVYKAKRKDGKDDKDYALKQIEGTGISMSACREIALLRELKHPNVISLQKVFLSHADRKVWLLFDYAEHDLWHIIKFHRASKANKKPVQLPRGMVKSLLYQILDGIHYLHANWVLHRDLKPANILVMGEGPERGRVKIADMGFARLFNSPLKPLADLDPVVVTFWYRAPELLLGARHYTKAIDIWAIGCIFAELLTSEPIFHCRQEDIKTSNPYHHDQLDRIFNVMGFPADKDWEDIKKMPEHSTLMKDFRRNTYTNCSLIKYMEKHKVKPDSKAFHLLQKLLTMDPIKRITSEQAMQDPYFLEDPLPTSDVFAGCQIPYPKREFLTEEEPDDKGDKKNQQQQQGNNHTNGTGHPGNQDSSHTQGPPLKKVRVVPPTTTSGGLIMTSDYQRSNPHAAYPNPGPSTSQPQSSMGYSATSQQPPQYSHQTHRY

[22] = target: Cyclin-dependent kinase 7 (Homo sapiens, UniProt P50613);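 note: value comes from a kinome-wide kinase profiling panel in which CDK7 is one member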
Cyclin-dependent kinase 7, sequence (P50613 whole entry): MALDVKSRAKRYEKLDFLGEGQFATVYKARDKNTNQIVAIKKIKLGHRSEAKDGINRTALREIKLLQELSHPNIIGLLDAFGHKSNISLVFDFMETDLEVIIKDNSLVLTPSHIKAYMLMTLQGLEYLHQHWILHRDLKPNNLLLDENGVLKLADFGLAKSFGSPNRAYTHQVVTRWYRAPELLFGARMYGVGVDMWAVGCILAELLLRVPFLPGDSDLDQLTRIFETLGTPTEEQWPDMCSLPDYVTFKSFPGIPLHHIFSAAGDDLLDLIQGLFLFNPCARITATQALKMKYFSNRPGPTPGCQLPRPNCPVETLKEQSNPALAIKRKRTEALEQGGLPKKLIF

[23] = target: Glycogen synthase kinase-3 beta (Homo sapiens, UniProt P49841);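 note: value comes from a broad kinome profiling panel, with GSK3B as the panel member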
[24] = target: Cyclin-dependent kinase 9 (Homo sapiens, UniProt P50750);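 note: value from the CDK9 entry of a kinome-spanning kinase panel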
[25] = target: cAMP-dependent protein kinase catalytic subunit alpha (Homo sapiens, UniProt P17612)
[26] = target: Dual specificity protein kinase CLK4 (Homo sapiens, UniProt Q9HAZ1)
Dual specificity protein kinase CLK4, sequence (Q9HAZ1 whole entry): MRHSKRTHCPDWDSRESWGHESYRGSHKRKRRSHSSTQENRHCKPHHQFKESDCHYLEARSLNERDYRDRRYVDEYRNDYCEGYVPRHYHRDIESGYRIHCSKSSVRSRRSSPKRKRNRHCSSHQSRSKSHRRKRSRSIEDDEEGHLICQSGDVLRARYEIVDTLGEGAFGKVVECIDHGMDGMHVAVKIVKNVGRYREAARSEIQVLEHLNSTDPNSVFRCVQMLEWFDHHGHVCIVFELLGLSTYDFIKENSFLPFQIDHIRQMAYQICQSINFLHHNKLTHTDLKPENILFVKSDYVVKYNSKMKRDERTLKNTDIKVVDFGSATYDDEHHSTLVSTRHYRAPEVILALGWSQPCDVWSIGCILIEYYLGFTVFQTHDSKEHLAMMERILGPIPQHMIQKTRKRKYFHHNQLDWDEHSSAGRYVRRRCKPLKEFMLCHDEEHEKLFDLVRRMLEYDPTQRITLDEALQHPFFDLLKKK

[27] = target: Mitogen-activated protein kinase kinase kinase kinase 4 (Homo sapiens, UniProt O95819)
Mitogen-activated protein kinase kinase kinase kinase 4, sequence (O95819 whole entry): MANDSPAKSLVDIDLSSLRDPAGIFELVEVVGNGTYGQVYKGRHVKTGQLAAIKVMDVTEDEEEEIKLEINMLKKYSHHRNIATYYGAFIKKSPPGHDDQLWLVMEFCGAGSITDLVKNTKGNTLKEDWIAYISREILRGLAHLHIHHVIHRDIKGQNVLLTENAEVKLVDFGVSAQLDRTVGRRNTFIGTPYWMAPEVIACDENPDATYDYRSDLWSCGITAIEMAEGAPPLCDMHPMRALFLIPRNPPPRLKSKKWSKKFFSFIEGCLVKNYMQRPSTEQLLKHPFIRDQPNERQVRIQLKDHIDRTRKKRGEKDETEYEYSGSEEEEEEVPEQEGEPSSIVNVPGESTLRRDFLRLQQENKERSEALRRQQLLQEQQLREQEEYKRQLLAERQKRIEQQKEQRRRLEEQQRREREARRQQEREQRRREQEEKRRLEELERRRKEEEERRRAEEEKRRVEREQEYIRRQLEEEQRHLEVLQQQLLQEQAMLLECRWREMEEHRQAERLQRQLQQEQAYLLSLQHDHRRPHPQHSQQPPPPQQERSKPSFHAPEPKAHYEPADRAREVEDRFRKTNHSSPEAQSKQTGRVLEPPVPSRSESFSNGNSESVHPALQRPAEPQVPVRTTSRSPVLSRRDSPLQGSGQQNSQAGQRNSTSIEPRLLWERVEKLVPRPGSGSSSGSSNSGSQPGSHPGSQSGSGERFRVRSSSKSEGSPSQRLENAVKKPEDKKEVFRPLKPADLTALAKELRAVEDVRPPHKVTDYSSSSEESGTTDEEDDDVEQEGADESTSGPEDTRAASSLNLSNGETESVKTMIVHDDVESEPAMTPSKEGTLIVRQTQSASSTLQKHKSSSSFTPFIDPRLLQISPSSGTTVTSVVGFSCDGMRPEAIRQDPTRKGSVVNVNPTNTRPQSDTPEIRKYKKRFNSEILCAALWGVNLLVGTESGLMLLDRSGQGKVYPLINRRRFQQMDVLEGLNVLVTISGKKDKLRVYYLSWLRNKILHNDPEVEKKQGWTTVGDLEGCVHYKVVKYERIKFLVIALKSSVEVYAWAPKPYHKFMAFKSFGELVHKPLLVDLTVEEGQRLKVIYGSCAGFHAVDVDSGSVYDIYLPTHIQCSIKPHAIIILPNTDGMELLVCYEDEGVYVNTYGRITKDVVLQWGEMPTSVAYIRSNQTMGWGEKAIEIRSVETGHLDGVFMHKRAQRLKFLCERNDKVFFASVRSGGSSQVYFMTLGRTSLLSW

[28] = target: Serine/threonine-protein kinase 3 (Homo sapiens, UniProt Q13188);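 note: measured as one member of a kinome-wide kinase panel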
[29] = target: ALK tyrosine kinase receptor (Homo sapiens, UniProt Q9UM73);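 note: ALK tested as one member of a kinase panel screen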
[30] = target: Tyrosine-protein kinase Lck (Homo sapiens, UniProt P06239);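 note: lck was assayed as one member of a kinase panel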
[31] = target: Activin receptor type-1 (Homo sapiens, UniProt Q04771); assay: Navigating the Kinome. Panel member name: ACVR1
[32] = target: Mitogen-activated protein kinase 8 (Homo sapiens, UniProt P45983);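 note: value comes from one member of a kinome-wide kinase profiling panel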
[33] = target: Tyrosine-protein kinase BTK (Homo sapiens, UniProt Q06187)
[34] = target: Fibroblast growth factor receptor 1 (Homo sapiens, UniProt P11362)
[35] = target: LIM domain kinase 1 (Homo sapiens, UniProt P53667); assay: Navigating the Kinome. Panel member name: LIMK1
[36] = target: Serine/threonine-protein kinase TAO1 (Homo sapiens, UniProt Q7L7X3)
[37] = target: Glycogen synthase kinase-3 alpha (Homo sapiens, UniProt P49840);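 note: GSK3A result taken from a broad kinome-wide kinase panel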
[38] = target: Serine/threonine-protein kinase Chk1 (Homo sapiens, UniProt O14757);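 note: measured as one member of a kinome-wide kinase profiling panel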
[39] = target: G protein-coupled receptor kinase 5 (Homo sapiens, UniProt P34947); assay: Navigating the Kinome. Panel member name: GPRK5
[40] = target: Focal adhesion kinase 1 (Homo sapiens, UniProt Q05397);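 note: measured as one member of a kinome panel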
[41] = target: Aurora kinase B (Homo sapiens, UniProt Q96GD4)
[42] = target: Tyrosine-protein kinase Fyn (Homo sapiens, UniProt P06241)
[43] = target: Calcium/calmodulin-dependent protein kinase type II subunit alpha (Homo sapiens, UniProt Q9UQM7); assay: Navigating the Kinome. Panel member name: CAMK2A
[44] = target: Leukocyte tyrosine kinase receptor (Homo sapiens, UniProt P29376); assay: Navigating the Kinome. Panel member name: LTK
[45] = target: Mitogen-activated protein kinase 14 (Homo sapiens, UniProt Q16539);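 note: part of a kinome-wide panel, MAPK14 entry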

- IC50 [1]: 3.22 µM (active)
- IC50 [2]: 10.4 µM (inactive)
Structure (SMILES): O=c1c(Cl)c(Oc2ccc3c(c2)CCO3)cnn1Cc1cccc2ccccc12

Structure (SMILES): CCCCSC1=N/C(=C/c2ccsc2)C(=O)N1c1ccccc1
- EC50 [3]: 10.3 µM (active)

- Ki [4]: 3.16 µM (active)
- Ki [5]: 0.501 µM (active)
- Ki [6]: 0.398 µM (active)
- Ki [7]: 0.02 µM (active)
- Ki [9]: 1 µM (active)
- Ki [10]: 1 µM (active)
- Ki [11]: > 3.16 µM (inactive)
- Ki [12]: 2 µM (active)
- Ki [13]: 1 µM (active)
- Ki [14]: 2 µM (active)
- Ki [15]: 0.158 µM (active)
- Ki [16]: 0.0631 µM (active)
- Ki [17]: > 2.51 µM (inactive)
- Ki [18]: 1 µM (active)
- Ki [19]: 0.158 µM (active)
- Ki [20]: 2.51 µM (active)
- Ki [21]: > 3.98 µM (inactive)
- Ki [22]: 1.58 µM (active)
- Ki [23]: 0.0158 µM (active)
- Ki [24]: 0.2 µM (active)
- Ki [25]: 3.98 µM (active)
- Ki [26]: 0.126 µM (active)
- Ki [27]: 2 µM (active)
- Ki [28]: 0.501 µM (active)
Structure (SMILES): O=C(O)c1ccccc1Nc1ncnc(Nc2ccc3cn[nH]c3c2)n1
- Ki [8]: 0.2 µM (active)

- Ki [29]: > 6.31 µM (inactive)
- Ki [6]: > 3.98 µM (inactive)
- Ki [30]: > 6.31 µM (inactive)
- Ki [31]: > 3.98 µM (inactive)
- Ki [32]: > 5.01 µM (inactive)
- Ki [9]: 2.51 µM (active)
- Ki [33]: > 6.31 µM (inactive)
- Ki [10]: > 5.01 µM (inactive)
- Ki [34]: > 3.98 µM (inactive)
- Ki [12]: > 3.98 µM (inactive)
- Ki [13]: > 5.01 µM (inactive)
- Ki [35]: 0.794 µM (active)
- Ki [36]: > 6.31 µM (inactive)
- Ki [37]: > 3.98 µM (inactive)
- Ki [38]: 0.398 µM (active)
- Ki [39]: > 3.98 µM (inactive)
- Ki [40]: > 6.31 µM (inactive)
- Ki [41]: > 3.98 µM (inactive)
- Ki [42]: > 6.31 µM (inactive)
- Ki [21]: > 3.98 µM (inactive)
- Ki [22]: > 3.98 µM (inactive)
- Ki [26]: 2 µM (active)
- Ki [27]: > 5.01 µM (inactive)
- Ki [43]: > 3.98 µM (inactive)
- Ki [44]: 2 µM (active)
- Ki [45]: > 3.98 µM (inactive)
Structure (SMILES): CCN(CC)CCNc1ccc(O)c2ccccc12
- Ki [8]: > 5.01 µM (inactive)
